Usually IC50 stands for the midpoint of a concentration-inhibition curve. A lower IC50 goes with greater potency.

This assay concerns KB. Description: Cytotoxicity against human KB cells after 72 hrs. It is filed as functional, cell-based.
`COc1cc([C@@H]2c3cc4c(cc3[C@@H](O[C@@H]3O[C@@H]5CO[C@@H](C)O[C@H]5[C@H](O)[C@H]3O)[C@H]3COC(=O)[C@H]23)OCO4)cc(OC)c1O` [ETOPOSIDE] returned an IC50 of 2 µM.

In turn, `CC(C)c1cc2c(cc1O)[C@@]1(C)CCCC(C)(C)[C@@H]1C[C@H]2CC1=C[C@@H]2[C@@H](CC1)[C@](C)(O)CC[C@H]2C(C)C` [FERRUGICADINOL] came in with an IC50 of 14.1 µM.

With `C=C1CC[C@@H]([C@H]2C[C@H]3C(C)(C)CCC[C@]3(C)c3cc(O)c(C(C)C)cc32)[C@]2(C)CC[C@@H](C(C)(C)O)C[C@@H]12` [FERRUGIEUDESMOL], 11.4 µM corresponded to half-maximal inhibition (IC50).

These data come from ChEMBL document CHEMBL1158108, “C35 terpenoids from the bark of Calocedrus macrolepis var. formosana with activity against human cancer cell lines” (J Nat Prod, 2006).
